# Laboratory results taken from US20230381163A1, “DABIGATRAN COMPOSITIONS AND METHODS OF TREATING AGE-RELATED MACULAR DEGENERATION” (The United States Government As Represented By The …, priority 2022, published 2023).
# Entries after “also recorded” stand apart in the source; their conditions may differ.
# Assays:
# [1] = tested on: AMD diagnosis in Medicare patients; experiment: MarketScan retrospective analysis of AMD diagnosis in dabigatran-exposed vs matched control Medicare patients; type: in vivo, human
# Excerpt: Material and methods. MarketScan analysis: Population. A total of 41,860 dabigatran-exposed and 41,860 non-exposed controls, for a total of 83,720 Medicare patients were extracted from MarketScan® data from 2010-2015 and used in the analysis. Patients with an inpatient or outpatient record with a diagnosis of AMD (wet or dry) for the baseline period were excluded from inclusion in the data set. Patients who filled at least one prescription of dabigatran during the 2011-2012 exposure period were included in the dabigatran group. The date of the first filled prescription was designated as the Index Date. […] The first patient record date in randomly selected records from 2011 or 2012 was chosen as the Index Date for control group patients. Patients with <90 days of insurance coverage in the baseline period or <120 days of coverage in the study (exposure) period were excluded from the final cohort. The exposed and control patients were matched by age, sex, state of residence, Index Date, days in baseline period, and days in study period using 1:1 propensity score mating with a greedy algorithm and a caliper distance of 0.2.
# Survival and Statistical Analysis. Survival analysis was used (Schnabolk et al., 2019) to show differences in time until AMD diagnosis among dabigatran users and control subjects using the […] procedure. AMD diagnoses were identified using ICD-9 codes 362.5 (unspecified macular degeneration), 362.51 (dry AMD), and 362.52 (wet AMD). A period of ˜5 years (from Jul. 1, 2010, to Dec. 31, 2015) was used for this analysis, and preexisting AMD diagnosis was ruled out by requiring that the subjects be AMD free over the first ˜600 days (designated as baseline days or Base Days). Data on the matched control and dabigatran population were analyzed using multivariable logistic and Cox regression. Specifically, the odds of being diagnosed with AMD during the follow-up time, controlling for days of dabigatran exposure, and the proportional hazard rates of obtaining an AMD diagnosis in the dabigatran or control population as well as any baseline differences in demographics or comorbidities was compared (Charlson or Elixhouser diagnoses).
# Results. Association between Dabigatran Use and AMD Risk. The patient population consisted of 83,720 Medicare patients extracted from MarketScan® data from 2010-2015 as described herein, with 41,860 dabigatran-exposed and 41,860 non-exposed controls. The controls were matched on 33 baseline variables, including demographics and clinical characteristics (Schnabolk, G., et al. (2019). Invest Ophthalmol Vis Sci 60, 3520-3526) (Table 1).
# [2] = tested on: choroidal neovascularization (CNV) lesions; experiment: Laser-induced CNV lesion size by OCT in mice fed dabigatran chow; type: in vivo, C57BL/6J mice
# Excerpt: Mouse model of choroidal neovascularization (CNV): Choroidal neovascularization. C57BL/6J mice (males and females) from the same colony, to guarantee identical microbiome ([…] al., 2016), were recruited to the study at 3 months of age. Argon laser photocoagulation (532 nm, 100 μm spot size, 0.1 s duration, 100 mW) was used to generate 4 laser spots around the optic nerve of each eye (Rohrer et al., 2009), utilizing bubble formation at the site of the laser burn as the inclusion criteria for successful Bruch's membrane rupture (Nozaki et al., 2006). Dabigatran exposure. Mice were fed standard chow fortified with dabigatran etexilate (10 […] of chow; Boehringer Ingelheim). Mice were either fed dabigatran chow during the angiogenesis period of CNV (starting 2 days prior to CNV induction through day 6 when the tissues were collected), or during the wound healing period (starting after the OCT analysis to ensure CNV growth on day 5 through day 23). Optical Coherence Tomography (OCT) analysis. OCT was used to quantify CNV lesion size on day 5 post laser treatment (Schnabolk, G., et al. (2014). Exp Eye Res 129, 18-23; Schnabolk, G., et al. (2015). Invest Ophthalmol Vis Sci; and Coughlin, B., et al. (2016). Sci Rep 6, 23794), or in weekly intervals to document recovery from fibrosis (Parsons, N., et al. (2019). Mol Immunol 108, 8-12) using an SD-OCT Bioptigen® Spectral Domain Ophthalmic Imaging System (Bioptigen Inc., Durham NC). Mice were anesthetized prior to imaging, eyes kept hydrated with normal saline, and body temperature was carefully monitored to prevent anesthesia-induced cataracts. The methods for imaging and analysis have been described (Schnabolk, G., et al. (2014). Exp Eye Res 129, 18-23; Schnabolk, G., et al. (2015). Invest Ophthalmol Vis Sci; Coughlin, B., et al. (2016). Sci Rep 6, 23794; and Parsons, N., et al. (2019). Mol Immunol 108, 8-). Based on the size of the individual pixels (1.6×1.6 μm), the lesion sizes were calculated.
# [3] = tested on: C3α breakdown products C3d/C3dg and C3α′1; experiment: Complement activation (C3d) in RPE/choroid of CNV mice (western blot); type: in vivo, mouse
# Excerpt: Pathway analysis in CNV. Based on the results in cells, an analysis in animals followed, focusing on VEGF levels in the RPE/choroid, complemented by CTGF analysis and complement activation (C3d production and binding). RPE/choroid samples were collected at the end of the angiogenesis experiment (day 6) and after the final OCT analysis in the repair experiment (day 23) and compared to naive controls (no CNV and no dabigatran treatment).
# Unexpectedly, and in contrast to the cell data (FIG. 4), C3d deposition was not reduced by dabigatran.
# [4] = 1-2 years exposure to dabigatran
# [5] = 2+ years exposure to dabigatran
smiles,measurement,setting,value
CCCCCCOC(=O)NC(=N)c1ccc(NCc2nc3cc(C(=O)N(CCC(=O)OCC)c4ccccn4)ccc3n2C)cc1,% AMD per study year,[1]; [4],3.25%
same,% patients with a wet AMD diagnosis,[1]; [4],0.90%
same,% patients with an AMD diagnosis,[1]; [4],10.11%
same,% wet AMD per study year,[1]; [4],0.26%
same,risk of AMD by exposure strata (odds ratio vs controls),[1]; 1-2 years of dabigatran,0.64
same,% AMD per study year,[1]; [5],3.00%
same,% patients with a wet AMD diagnosis,[1]; [5],1.35%
same,% patients with an AMD diagnosis,[1]; [5],12.26%
same,% wet AMD per study year,[1]; [5],0.29%
same,risk of AMD by exposure strata (odds ratio vs controls),[1]; 2+ years of dabigatran,0.64
same,% AMD per study year,[1]; <1 year exposure to dabigatran,3.04%
same,% patients with a wet AMD diagnosis,[1]; <1 year exposure to dabigatran,0.75%
same,% patients with an AMD diagnosis,[1]; <1 year exposure to dabigatran,7.51%
same,% wet AMD per study year,[1]; <1 year exposure to dabigatran,0.28%
same,risk of AMD by exposure strata (odds ratio vs controls),[1]; <1 year of dabigatran,0.52
same,% AMD per study year,[1]; all dabigatran users,3.07%
same,% patients with a wet AMD diagnosis,[1]; all dabigatran users,0.91%
same,% patients with an AMD diagnosis,[1]; all dabigatran users,9.1%
same,% wet AMD per study year,[1]; all dabigatran users,0.28%
same,% patients with an AMD diagnosis,"[1]; all dabigatran users, listed as Dabigatran",9.10%
same,reduction of percent AMD per study year,[1]; dabigatran vs control group,~35%
same,reduction of percent patients with a wet AMD diagnosis,[1]; dabigatran vs control group,~60%
same,"hazard ratio, time to first recorded diagnosis of unspecified AMD","[1]; dabigatran vs matched controls, P<0.0001",0.63
same,"Days to AMD, Mean","[1]; dabigatran-exposed subjects, n 3810",562 days
same,"Wet Days, Mean","[1]; dabigatran-exposed subjects, n 38399",1047 days
same,"Dry Days, Mean","[1]; dabigatran-exposed subjects, n 41511",1011 days
same,"AMD Days, Mean","[1]; dabigatran-exposed subjects, n 41860",1007 days
same,odds ratio (OR) of AMD,"[1]; multivariable logistic regression controlling for age, sex, days in study, CI 0.55-0.61",0.58
same,reduction of CNV lesion sizes,"[2]; dabigatran from 2 days prior to CNV induction through angiogenesis phase, OCT day 5, insignificant, P=0.2",~15%
same,CNV lesion size at final time point,"[2]; dabigatran from day 5 through repair phase, day 23, P<0.02",significantly smaller lesions
same,CNV lesion response over time (repair),"[2]; repair phase days 5-23, repeated measure ANOVA P<0.0001",significant effect of treatment; also recorded: acceleration of repair
same,effect on C3d deposition,"[3]; CNV animals, repair phase",not reduced
same,effect on C3d/C3dg and C3α′1 levels in RPE/choroid,"[3]; end of repair period (23 days), P<0.05",further elevated
